Experimental data taken from patent publication US9073858B2, “Methods of targeted drug development” (priority 2010, dated 2015).
Like-named read-outs stand apart in the source and are kept apart here.

Columns and labels:
[1] = test system: HT-29 cells; experiment: HT-29 Cell Proliferation Assay (MTT); type: cell-based; settings: Homo sapiens, HT-29, 72 h, read-out: IC50 Value (μM) HT-29 Cells
[2] = test system: H1975 cells; experiment: H1975 Cell Proliferation Assay (MTT); type: cell-based; settings: Homo sapiens
[3] = test system: annexin V in A549 cells; settings: for % Total Apoptosis: cells in early- and late-stage apoptosis; for % Relative to Reference Cpd.: reference 4.0 μM camptothecin or 1.0 μM staurosporin
From the text: Assays that measure apoptosis are utilized to determine whether or not compounds can induce programmed cell death in cancer cells. Annexin V is a protein that is used to detect apoptosis by binding to phosphatidylserine expressed on membranes of dead or dying cells. Fluorescently tagged with FITC, it can he used in conjunction with 7-aminoactinomycin D to determine the percentage of cells undergoing apoptosis via flow cytometry. Cells in early apoptosis will emit an FITC signal which will eventually be replaced by the far red 7-AAD signal that is associated with cell membrane permeability due to necrosis.
In brief, for the Annexin V Assay, compounds were added to cells plated in 6-well plates. Treated cells were incubated for up to 30 hours before addition of fluorescent cell marker probes that detect the presence of annexin V. The percentage of cells undergoing apoptosis and necrosis were determined by flow cytometry.
On day 2, working solutions of compounds (at 1000×) were prepared. To 2.0 ml media/well was added 2 μl 1000× compound diluted in 100% DMSO for final DMSO concentration of 0.1%. On day 3, plates were incubated for 30 hrs. […] Cells were collected by centrifugation at 300×g for 5 min.
Resuspended cells were stored at 4° C. in the dark, until flow cytometry analysis.
For flow cytometry analysis of the Annexin V Assay, sample acquisition was on the BD LSR II manufactured by BD Biosciences, San Jose, Calif. […] 10,000 events werer collected based on a stopping gate of forward scatter vs side scatter light. Acquisition was done through BD FACS DiVa software version 6.1.1 on high flow rate (60 μL/min). Calculations were as follows: Quadrant 3=lower left=live cells; Quadrant 4=lower right=early apoptosis; Quadrant 2=upper right=late apoptosis; Quadrant 1=upper left=dead cells. Percent (%)Total apoptosis was calculated as early (quadrant 4)+late (quadrant 2). Percent (%) ratio apoptosis was calculated as (experimental-No treatment/positive control)*100. All statistical analyses are done using GraphPad Prism or Microsoft Excel.

[4] = Stability on incubation with mouse liver microsomes (MLM); type: in vitro ADME; settings: percentage left after incubation with mouse liver microsomes for 30 minutes
Outline: (§1)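 Values are percent compound remaining after 30 min incubation with mouse or human liver microsomes.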

[5] = Stability on incubation with human liver microsomes (HLM); type: in vitro ADME; settings: percentage left after incubation with human liver microsomes for 30 minutes
Outline: as §1

[6] = test system: DNA fragmentation in A549 cells; experiment: DNA Fragmentation Assay (Cell Death Detection ELISA); type: cell-based; settings: for Emax at 1 µM / Emax at 10 µM: A549, read-out: % Increase Relative to Staurosporin
[7] = Pharmacokinetics, intravenous and oral dose; parameters: species or system male CD-1 mice; settings: in vivo; for Cmax: plasma; for half-life: read-out: Half-life (t1/2; h) (converted)
Description: Plasma levels of the test compounds were determined by LC-MS/MS. Data was analyzed by non compartmental pharmacokinetic model by using WinNonlin.

[8] = NCI-H1975, 72 h, read-out: IC50 Value (μM) H1975 Cells
[9] = Homo sapiens, A549, 24 h, read-out: % Increase over Background
[10] = mouse, iv, 1 mg/kg, male CD-1 mice
[11] = mouse, po, 5 mg/kg, male CD-1 mice
[12] = mouse, po, 5 mg/kg, male CD-1 mice, read-out: Tmax

Structure (SMILES)	IC50 [1] [µM]	IC50 [2, 8] [µM]	% Total Apoptosis ([3]; 1 μM, A549 cells) [%]	% Total Apoptosis ([3]; 10 μM, A549 cells) [%]	MLM % Remaining@ 30 Min [4] [%]	HLM % Remaining@ 30 Min [5] [%]	activation at 10 µM [6, 9] [%]	Emax at 1 µM ([6]; Homo sapiens) [%]	Emax at 10 µM ([6]; Homo sapiens) [%]	AUC ([7]; male, CD-1, mouse, iv, 1 mg/kg) [µg·h/mL]	Tmax ([7]; male, CD-1, mouse, iv, 1 mg/kg) [min]	AUC ([7]; male, CD-1, mouse, po, 5 mg/kg) [µg·h/mL]	Vd [7, 10] [L/kg]	clearance [7, 10] [L/h/kg]	Cmax [7, 10] [µg/mL]	half-life [7, 10] [min]	Cmax [7, 11] [µg/mL]	Tmax [7, 12] [min]	other results
Cc1cc(Cl)cnc1NC(c1ccc(Cl)cc1Cl)c1ccc2cccnc2c1O (stereo not drawn) [AD4-13130]	0.64	0.088	32	38	69	89	684	62	69	0.609	4.98	0.278	3.24	1.64	0.669 ± 0.045	112	0.131 ± 0.051	60	apoptosis, share of the cell population ([3]; 1 μM, A549 cells, FIG. 16B): greater than 50%; % Relative to Reference Cpd. ([3]; 1 μM): 178%; late apoptosis, share of the cell population ([3]; 10 μM, A549 cells, FIG. 16B): up to 20%; % Relative to Reference Cpd. ([3]; 10 μM): 166%; apoptotic activity ([6]; Caspase, DNA Fragmentation, Annexin-V): increased apoptotic activity; activation at 1 µM [6, 9]: 630%
Cc1c(Cl)cnc(NC(c2cccc(Cl)c2Cl)c2ccc3cccnc3c2O)c1F (stereo not drawn) [AD4-13192]	2.2	0.19	29	30	63	100	561	11	55	1.39	4.98	0.115	0.56	0.72	3.55 ± 0.571	88.2	0.059 ± 0.021	30	
Oc1c(C(Nc2ccccn2)c2ccc(C(F)(F)F)cc2)ccc2cccnc12 (stereo not drawn) [compound 10460]																			IC50 ([2]; NCI-H1975, H1975 cells, 72 hours post compound treatment, read-out: IC50 (best fit value from FIG. 10)): 0.304 µM; IC50 ([2]; NCI-H1975, H1975 cells, 72 hours post compound treatment, read-out: Log IC50 (best fit value from FIG. 10) (converted)): 0.304 µM; IC50 ([2]; NCI-H1975, MTT, 72 hours, read-out: IC50 Value (μM) H1975 Cells): 0.3 µM
